Measured values as given in patent US10821115B2, “Compounds that inhibit Mcl-1 protein” (priority 2017, dated 2020).
Like-named read-outs stand apart in the source and are kept apart here.

What was measured:
[1] = biological target: recombinant human Mcl-1 (residues 171-327) / Bim interaction (Homo sapiens (Human), UniProt Q07820); test: biochemical; format: binding; conditions: read-out: Mcl-1 HTRF IC50
[2] = system: human multiple myeloma cell line, OPM-2; test: Cell viability assay (OPM-2 10 FBS), CellTiter-Glo; format: cell-based
Outline: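 Cells were seeded at 3000 cells/well in RPMI 1640 with 10% FBS and exposed to serially diluted compounds for 16 h at 37 °C, 5% CO2.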

[3] = TR-FRET, Mcl-1(171-327) / biotin-Bim (51-76)
[4] = Homo sapiens, OPM-2, 16 h, read-out: OPM-2 10% FBS IC50 IP, OPM-2 cells, 10% FBS, 16 h, CellTiter-Glo
[5] = 0.1 nM Mcl-1(171-327), 0.05 nM biotin-Bim (51-76)
[6] = Homo sapiens, OPM-2, 16 h, read-out: OPM-2 10% FBS IC50 IP, OPM-2 cells, 10% FBS, 16 h incubation

Chain of recombinant human Mcl-1 (residues 171-327) / Bim interaction (Q07820 171-327): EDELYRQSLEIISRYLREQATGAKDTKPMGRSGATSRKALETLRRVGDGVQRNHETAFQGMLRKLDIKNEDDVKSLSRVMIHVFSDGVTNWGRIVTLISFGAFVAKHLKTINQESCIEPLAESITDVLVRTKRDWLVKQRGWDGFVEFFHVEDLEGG

C[C@@H]1[C@@H](C)C/C=C/[C@](O)(c2cnccn2)[C@@H]2CC[C@H]2CN2C[C@@]3(CCCc4cc(Cl)ccc43)COc3ccc(cc32)C(=O)NS1(=O)=O [Example 100383, (1S,3′R,6′R,7′R,8′E,11′S,12′R)-6-chloro-7′-hydroxy-11′,12′-dimethyl-7′-(2-pyrazinyl)-3,4-dihydro-2H,15′H-spiro[naphthalene-1,22′-[20]oxa[13]thia[1,14]diazatetracyclo [14.7.2.0~3,6~.0~19,24~]pentacosa[8,16,18,24]tetraen]-15′-one 13′,13′-dioxide]
IC50 [1, 3]: 0.264 nM
IC50 [2, 4]: 3430 nM

C[C@@H]1[C@@H](C)C/C=C/[C@](C)(O)[C@@H]2CC[C@H]2CN2C[C@@]3(CCCc4cc(Cl)ccc43)COc3ccc(nc32)C(=O)NS1(=O)=O (single isomer, unassigned) [Example 100600]
IC50 [1, 3]: 0.445 nM
IC50 [2, 4]: 528 nM

C[C@@H]1[C@@H](C)CCC[C@]2(CC(N3CCCC3)=NO2)[C@@H]2CC[C@H]2CN2C[C@@]3(CCCc4cc(Cl)ccc43)COc3ccc(cc32)C(=O)NS1(=O)=O [Example 100147, (1S,3′R,6′R,7′S,11′S,12′R)-6-chloro-11′,12′-dimethyl-3″-(1-pyrrolidinyl)-3,4-dihydro-2H,4″H,15′H-dispiro[naphthalene-1,22′-[20]oxa[13]thia[1,14]diazatetracyclo [14.7.2.0~3,6~.0~19,24~]pentacosa[16,18,24]triene-7′,5″-[1,2]oxazol]-15′-one 13′,13′-dioxide]
IC50 [1, 3]: 0.305 nM
IC50 [2, 4]: 666 nM

CC[C@@H]1CC/C=C/[C@](CN2CCN3CCCC[C@@H]3C2)(OC)[C@@H]2CC[C@H]2CN2C[C@@]3(CCCc4cc(Cl)ccc43)COc3ccc(cc32)C(=O)NS1(=O)=O [Example 29, (1S,3′R,6′R,7′S,8′E,12′R)-6-chloro-12′-ethyl-7′-methoxy-7′-((9aR)-octahydro-2H-pyrido[1,2-a]pyrazin-2-ylmethyl)-3,4-dihydro-2H,15′H-spiro[naphthalene-1,22′-[20]oxa[13]thia[1,14]diazatetracyclo [14.7.2.0~3,6~.0~19,24~]pentacosa[8,16,18,24]tetraen]-15′-one 13′,13′-dioxide]
IC50 [1, 5]: 0.249 nM
IC50 [2, 6]: 186 nM

CO[C@@H](C(=O)N(C)C)[C@@]1(O)/C=C/C[C@H](C)[C@@H](C)S(=O)(=O)NC(=O)c2ccc3c(c2)N(C[C@@H]2CC[C@H]21)C[C@@]1(CCCc2cc(Cl)ccc21)CO3 [Example 100286, (2R)-2-((1S,3′R,6′R,7′R,8′E,11′S,12′R)-6-chloro-7′-hydroxy-11′,12′-dimethyl-13′,13′-dioxido-15′-oxo-3,4-dihydro-2H-spiro[naphthalene-1,22′-[20]oxa[13]thia[1,14]diazatetracyclo [14.7.2.0~3,6~.0~19,24~]pentacosa[8,16,18,24]tetraen]-7′-yl)-2-methoxy-N,N-dimethylethanamide]
IC50 [1, 3]: 0.471 nM
IC50 [2, 4]: 1580 nM

CO[C@]1(C#CCCO)/C=C/C[C@H](C)[C@@H](C)S(=O)(=O)NC(=O)c2ccc3c(c2)N(C[C@@H]2CC[C@H]21)C[C@@]1(CCCc2cc(Cl)ccc21)CO3 [Example 100426, (1S,3′R,6′R,7′R,8′E,11′S,12′R)-6-chloro-7′-(4-hydroxy-1-butyn-1-yl)-7′-methoxy-11′,12′-dimethyl-3,4-dihydro-2H,15′H-spiro[naphthalene-1,22′-[20]oxa[13]thia[1,14]diazatetracyclo [14.7.2.0~3,6~.0~19,24~]pentacosa[8,16,18,24]tetraen]-15′-one 13′,13′-dioxide]
IC50 [1, 3]: 0.197 nM
IC50 [2, 4]: 110 nM

CN[C@@H]1C[C@H](C)[C@@H](C)S(=O)(=O)NC(=O)c2ccc3c(c2)N(C[C@@H]2CC[C@H]2[C@@](C)(O)C1)C[C@@]1(CCCc2cc(Cl)ccc21)CO3 [Example 100064, (1S,3′R,6′R,7′S,9′R,11′S,12′R)-6-chloro-7′-hydroxy-7′,11′,12′-trimethyl-9′-(methylamino)-3,4-dihydro-2H,15′H-spiro[naphthalene-1,22′-[20]oxa[13]thia[1,14]diazatetracyclo [14.7.2.0~3,6~.0~19,24~]pentacosa[16,18,24]trien]-15′-one 13′,13′-dioxide]
IC50 [1, 3]: 2.54 nM
IC50 [2, 4]: 3730 nM

COc1cccc([C@]2(O)/C=C/C[C@H](C)[C@@H](C)S(=O)(=O)NC(=O)c3ccc4c(c3)N(C[C@@H]3CC[C@H]32)C[C@@]2(CCCc3cc(Cl)ccc32)CO4)n1 [Example 100191, (1S,3′R,6′R,7′S,8′E,11′S,12′R)-6-chloro-7′-hydroxy-7′-(6-methoxy-2-pyridinyl)-11′,12′-dimethyl-3,4-dihydro-2H,15′H-spiro[naphthalene-1,22′-[20]oxa[13]thia[1,14]diazatetracyclo [14.7.2.0~3,6~.0~19,24~]pentacosa[8,16,18,24]tetraen]-15′-one 13′,13′-dioxide]
IC50 [1, 3]: 1.6 nM
IC50 [2, 4]: 557 nM

C[C@@H]1[C@@H](C)CCC[C@](O)(C2CCN(C)CC2)[C@@H]2CC[C@H]2CN2C[C@@]3(CCCc4cc(Cl)ccc43)COc3ccc(cc32)C(=O)NS1(=O)=O [Example 100387, (1S,3′R,6′R,7′S,11′S,12′R)-6-chloro-7′-hydroxy-11′,12′-dimethyl-7′-(1-methyl-4-piperidinyl)-3,4-dihydro-2H,15′H-spiro[naphthalene-1,22′-[20]oxa[13]thia[1,14]diazatetracyclo [14.7.2.0~3,6~.0~19,24~]pentacosa[16,18,24]trien]-15′-one 13′,13′-dioxide]
IC50 [1, 3]: 0.175 nM
IC50 [2, 4]: 3760 nM

COC[C@H]1CN(C[C@]2(OC)/C=C/C[C@H](C)[C@@H](C)S(=O)(=O)NC(=O)c3ccc4c(c3)N(C[C@@H]3CC[C@H]32)C[C@@]2(CCCc3cc(Cl)ccc32)CO4)CCO1 [Example 199, (1S,3′R,6′R,7′S,8′E,11′S,12′R)-6-chloro-7′-methoxy-7′-(((2R)-2-(methoxymethyl)-4-morpholinyl)methyl)-11′,12′-dimethyl-3,4-dihydro-2H,15′H-spiro[naphthalene-1,22′-[20]oxa[13]thia[1,14]diazatetracyclo [14.7.2.0~3,6~.0~19,24~]pentacosa[8,16,18,24]tetraen]-15′-one 13′,13′-dioxide]
IC50 [1, 5]: 0.119 nM
IC50 [2, 6]: 208 nM

CO[C@@]1(C[C@H](O)c2ccccn2)/C=C/C[C@H](C)[C@@H](C)S(=O)(=O)NC(=O)c2ccc3c(c2)N(C[C@@H]2CC[C@H]21)C[C@@]1(CCCc2cc(Cl)ccc21)CO3 (single isomer, unassigned) [Example 100490]
IC50 [1, 3]: 0.292 nM
IC50 ([2]; read-out: OPM-2 10% FBS IC50 IP, OPM-2 cells, 10% FBS, 16 h, CellTiter-Glo): 511 nM

CO[C@@]1(CN2CCN(CC3COC3)CC2)/C=C/C[C@H](C)[C@@H](C)S(=O)(=O)NC(=O)c2ccc3c(c2)N(C[C@@H]2CC[C@H]21)C[C@@]1(CCCc2cc(Cl)ccc21)CO3 [Example 313, (1S,3′R,6′R,7′S,8′E,11′S,12′R)-6-chloro-7′-methoxy-11′,12′-dimethyl-7′-((4-(3-oxetanylmethyl)-1-piperazinyl)methyl)-3,4-dihydro-2H,15′H-spiro[naphthalene-1,22′-[20]oxa[13]thia[1,14]diazatetracyclo [14.7.2.0~3,6~.0~19,24~]pentacosa[8,16,18,24]tetraen]-15′-one 13′,13′-dioxide]
IC50 [1, 5]: 0.225 nM
IC50 [2, 6]: 131 nM
